Measurements taken from ChEMBL document CHEMBL2057203, “Synthesis and evaluation of novel F-18 labeled 4-aminoquinazoline derivatives: potential PET imaging agents for tumor detection” (Bioorg Med Chem Lett, 2012).

Legend:
[1] = n-octanol-PBS partition coefficient, logP of the compound; format: physicochemical
Plasma = experiment: Metabolic stability in mouse plasma after 2 hrs by radio-HPLC analysis; format: ADME, cell-free
[2] = Chemical stability in PBS after 2 hrs by radio-HPLC analysis at room temperature; format: physicochemical; details: buffer
[3] = Chemical stability in PBS after 2 hrs by radio-HPLC analysis at 60 degC; format: physicochemical; details: buffer
Heart [4] = experiment: Biodistribution in S180 tumor-bearing mouse heart at 8 to 10 uCi, iv after 5 mins by gamma counting; format: ADME, organism-based; details: in vivo
Liver [5] = experiment: Biodistribution in S180 tumor-bearing mouse liver at 8 to 10 uCi, iv after 5 mins by gamma counting; format: ADME, organism-based; details: in vivo
Spleen [6] = experiment: Biodistribution in S180 tumor-bearing mouse spleen at 8 to 10 uCi, iv after 5 mins by gamma counting; format: ADME, organism-based; details: in vivo
Lung [7] = experiment: Biodistribution in S180 tumor-bearing mouse lungs at 8 to 10 uCi, iv after 5 mins by gamma counting; format: ADME, organism-based; details: in vivo
Kidney [8] = experiment: Biodistribution in S180 tumor-bearing mouse kidneys at 8 to 10 uCi, iv after 5 mins by gamma counting; format: ADME, organism-based; details: in vivo
Stomach [9] = experiment: Biodistribution in S180 tumor-bearing mouse stomach at 8 to 10 uCi, iv after 5 mins by gamma counting; format: ADME, organism-based; details: in vivo
Muscle tissue [10] = experiment: Biodistribution in S180 tumor-bearing mouse muscle at 8 to 10 uCi, iv after 5 mins by gamma counting; format: ADME, organism-based; details: in vivo
Brain [11] = experiment: Biodistribution in S180 tumor-bearing mouse brain at 8 to 10 uCi, iv after 5 mins by gamma counting; format: ADME, organism-based; details: in vivo
Mus musculus [12] = experiment: Biodistribution in S180 cells xenografted in mouse tumor at 8 to 10 uCi, iv after 5 mins by gamma counting; format: ADME, organism-based, Neoplasm, CCRF S-180; details: in vivo
Blood [13] = experiment: Biodistribution in S180 tumor-bearing mouse blood at 8 to 10 uCi, iv after 5 mins by gamma counting; format: ADME, organism-based; details: in vivo
Nucleic Acid [14] = experiment: Ratio of drug level in tumor to muscle in S180 tumor-bearing mouse at 8 to 10 uCi, iv at 5 mins by gamma counting; format: ADME, organism-based; details: in vivo
Nucleic Acid [15] = experiment: Ratio of drug level in tumor to blood in S180 tumor-bearing mouse at 8 to 10 uCi, iv at 5 mins by gamma counting; format: ADME, organism-based; details: tumour
Nucleic Acid [16] = experiment: Ratio of drug level in tumor to brain in S180 tumor-bearing mouse at 8 to 10 uCi, iv at 5 mins by gamma counting; format: ADME, organism-based; details: in vivo
Heart [17] = experiment: Biodistribution in S180 tumor-bearing mouse heart at 8 to 10 uCi, iv after 30 mins by gamma counting; format: ADME, organism-based; details: in vivo, 0.5 h
Liver [18] = experiment: Biodistribution in S180 tumor-bearing mouse liver at 8 to 10 uCi, iv after 30 mins by gamma counting; format: ADME, organism-based; details: in vivo, 0.5 h
Spleen [19] = experiment: Biodistribution in S180 tumor-bearing mouse spleen at 8 to 10 uCi, iv after 30 mins by gamma counting; format: ADME, organism-based; details: in vivo, 0.5 h
Lung [20] = experiment: Biodistribution in S180 tumor-bearing mouse lung at 8 to 10 uCi, iv after 30 mins by gamma counting; format: ADME, organism-based; details: in vivo, 0.5 h
Kidney [21] = experiment: Biodistribution in S180 tumor-bearing mouse kidney at 8 to 10 uCi, iv after 30 mins by gamma counting; format: ADME, organism-based; details: in vivo, 0.5 h
Stomach [22] = experiment: Biodistribution in S180 tumor-bearing mouse stomach at 8 to 10 uCi, iv after 30 mins by gamma counting; format: ADME, organism-based; details: in vivo, 0.5 h
Muscle tissue [23] = experiment: Biodistribution in S180 tumor-bearing mouse muscle at 8 to 10 uCi, iv after 30 mins by gamma counting; format: ADME, organism-based; details: in vivo, 0.5 h
Brain [24] = experiment: Biodistribution in S180 tumor-bearing mouse brain at 8 to 10 uCi, iv after 30 mins by gamma counting; format: ADME, organism-based; details: in vivo, 0.5 h
Mus musculus [25] = experiment: Biodistribution in S180 cells xenografted in mouse tumor at 8 to 10 uCi, iv after 30 mins by gamma counting; format: ADME, organism-based, Neoplasm, CCRF S-180; details: in vivo, 0.5 h
Blood [26] = experiment: Biodistribution in S180 tumor-bearing mouse blood at 8 to 10 uCi, iv after 30 mins by gamma counting; format: ADME, organism-based; details: in vivo, 0.5 h
Nucleic Acid [27] = experiment: Ratio of drug level in tumor to muscle in S180 tumor-bearing mouse at 8 to 10 uCi, iv at 30 mins by gamma counting; format: ADME, organism-based; details: in vivo, 0.5 h
Nucleic Acid [28] = experiment: Ratio of drug level in tumor to blood in S180 tumor-bearing mouse at 8 to 10 uCi, iv at 30 mins by gamma counting; format: ADME, organism-based; details: tumour, 0.5 h
Nucleic Acid [29] = experiment: Ratio of drug level in tumor to brain in S180 tumor-bearing mouse at 8 to 10 uCi, iv at 30 mins by gamma counting; format: ADME, organism-based; details: in vivo, 0.5 h
Heart [30] = experiment: Biodistribution in S180 tumor-bearing mouse heart at 8 to 10 uCi, iv after 60 mins by gamma counting; format: ADME, organism-based; details: in vivo, 1 h
Liver [31] = experiment: Biodistribution in S180 tumor-bearing mouse liver at 8 to 10 uCi, iv after 60 mins by gamma counting; format: ADME, organism-based; details: in vivo, 1 h
Spleen [32] = experiment: Biodistribution in S180 tumor-bearing mouse spleen at 8 to 10 uCi, iv after 60 mins by gamma counting; format: ADME, organism-based; details: in vivo, 1 h
Lung [33] = experiment: Biodistribution in S180 tumor-bearing mouse lung at 8 to 10 uCi, iv after 60 mins by gamma counting; format: ADME, organism-based; details: in vivo, 1 h
Kidney [34] = experiment: Biodistribution in S180 tumor-bearing mouse kidney at 8 to 10 uCi, iv after 60 mins by gamma counting; format: ADME, organism-based; details: in vivo, 1 h
Stomach [35] = experiment: Biodistribution in S180 tumor-bearing mouse stomach at 8 to 10 uCi, iv after 60 mins by gamma counting; format: ADME, organism-based; details: in vivo, 1 h
Muscle tissue [36] = experiment: Biodistribution in S180 tumor-bearing mouse muscle at 8 to 10 uCi, iv after 60 mins by gamma counting; format: ADME, organism-based; details: in vivo, 1 h
Brain [37] = experiment: Biodistribution in S180 tumor-bearing mouse brain at 8 to 10 uCi, iv after 60 mins by gamma counting; format: ADME, organism-based; details: in vivo, 1 h
Mus musculus [38] = experiment: Biodistribution in S180 cells xenografted in mouse tumor at 8 to 10 uCi, iv after 60 mins by gamma counting; format: ADME, organism-based, Neoplasm, CCRF S-180; details: in vivo, 1 h
Blood [39] = experiment: Biodistribution in S180 tumor-bearing mouse blood at 8 to 10 uCi, iv after 60 mins by gamma counting; format: ADME, organism-based; details: in vivo, 1 h
Nucleic Acid [40] = experiment: Ratio of drug level in tumor to muscle in S180 tumor-bearing mouse at 8 to 10 uCi, iv at 60 mins by gamma counting; format: ADME, organism-based; details: in vivo, 1 h
Nucleic Acid [41] = experiment: Ratio of drug level in tumor to blood in S180 tumor-bearing mouse at 8 to 10 uCi, iv at 60 mins by gamma counting; format: ADME, organism-based; details: tumour, 1 h
Nucleic Acid [42] = experiment: Ratio of drug level in tumor to brain in S180 tumor-bearing mouse at 8 to 10 uCi, iv at 60 mins by gamma counting; format: ADME, organism-based; details: in vivo, 1 h
Heart [43] = experiment: Biodistribution in S180 tumor-bearing mouse heart at 8 to 10 uCi, iv after 120 mins by gamma counting; format: ADME, organism-based; details: in vivo, 2 h
Liver [44] = experiment: Biodistribution in S180 tumor-bearing mouse liver at 8 to 10 uCi, iv after 120 mins by gamma counting; format: ADME, organism-based; details: in vivo, 2 h
Spleen [45] = experiment: Biodistribution in S180 tumor-bearing mouse spleen at 8 to 10 uCi, iv after 120 mins by gamma counting; format: ADME, organism-based; details: in vivo, 2 h
Lung [46] = experiment: Biodistribution in S180 tumor-bearing mouse lung at 8 to 10 uCi, iv after 120 mins by gamma counting; format: ADME, organism-based; details: in vivo, 2 h
Kidney [47] = experiment: Biodistribution in S180 tumor-bearing mouse kidney at 8 to 10 uCi, iv after 120 mins by gamma counting; format: ADME, organism-based; details: in vivo, 2 h
Stomach [48] = experiment: Biodistribution in S180 tumor-bearing mouse stomach at 8 to 10 uCi, iv after 120 mins by gamma counting; format: ADME, organism-based; details: in vivo, 2 h
Muscle tissue [49] = experiment: Biodistribution in S180 tumor-bearing mouse muscle at 8 to 10 uCi, iv after 120 mins by gamma counting; format: ADME, organism-based; details: in vivo, 2 h
Brain [50] = experiment: Biodistribution in S180 tumor-bearing mouse brain at 8 to 10 uCi, iv after 120 mins by gamma counting; format: ADME, organism-based; details: in vivo, 2 h
Mus musculus [51] = experiment: Biodistribution in S180 cells xenografted in mouse tumor at 8 to 10 uCi, iv after 120 mins by gamma counting; format: ADME, organism-based, Neoplasm, CCRF S-180; details: in vivo, 2 h
Blood [52] = experiment: Biodistribution in S180 tumor-bearing mouse blood at 8 to 10 uCi, iv after 120 mins by gamma counting; format: ADME, organism-based; details: in vivo, 2 h
Nucleic Acid [53] = experiment: Ratio of drug level in tumor to muscle in S180 tumor-bearing mouse at 8 to 10 uCi, iv at 120 mins by gamma counting; format: ADME, organism-based; details: in vivo, 2 h
Nucleic Acid [54] = experiment: Ratio of drug level in tumor to blood in S180 tumor-bearing mouse at 8 to 10 uCi, iv at 120 mins by gamma counting; format: ADME, organism-based; details: tumour, 2 h
Nucleic Acid [55] = experiment: Ratio of drug level in tumor to brain in S180 tumor-bearing mouse at 8 to 10 uCi, iv at 120 mins by gamma counting; format: ADME, organism-based; details: in vivo, 2 h
Blood [56] = experiment: Clearance in S180 tumor-bearing mouse blood at 8 to 10 uCi, iv at 120 mins; format: ADME, organism-based; details: in vivo, 2 h

C#Cc1cccc(Nc2ncnc3cc(OC)c(OCC[18F])cc23)c1
logP [1]: 1.64
Stability (Plasma): Stable
Stability [2]: Stable
Stability [3]: Stable
Drug uptake (Heart [4]): 8.68 % ID/g
Drug uptake (Liver [5]): 8.75 % ID/g
Drug uptake (Spleen [6]): 0.98 % ID/g
Drug uptake (Lung [7]): 3.6 % ID/g
Drug uptake (Kidney [8]): 6.35 % ID/g
Drug uptake (Stomach [9]): 8.56 % ID/g
Drug uptake (Muscle tissue [10]): 0.74 % ID/g
Drug uptake (Brain [11]): 5.51 % ID/g
Drug uptake (Mus musculus [12]): 1.4 % ID/g
Drug uptake (Blood [13]): 7.56 % ID/g
Ratio (Nucleic Acid [14]): 1.89
Ratio (Nucleic Acid [15]): 0.19
Ratio (Nucleic Acid [16]): 0.25
Drug uptake (Heart [17]): 2.85 % ID/g
Drug uptake (Liver [18]): 7.63 % ID/g
Drug uptake (Spleen [19]): 1.93 % ID/g
Drug uptake (Lung [20]): 2.99 % ID/g
Drug uptake (Kidney [21]): 4.16 % ID/g
Drug uptake (Stomach [22]): 5.94 % ID/g
Drug uptake (Muscle tissue [23]): 1.74 % ID/g
Drug uptake (Brain [24]): 2.59 % ID/g
Drug uptake (Mus musculus [25]): 3.32 % ID/g
Drug uptake (Blood [26]): 3.06 % ID/g
Ratio (Nucleic Acid [27]): 1.91
Ratio (Nucleic Acid [28]): 1.08
Ratio (Nucleic Acid [29]): 1.28
Drug uptake (Heart [30]): 1.99 % ID/g
Drug uptake (Liver [31]): 4.07 % ID/g
Drug uptake (Spleen [32]): 0.77 % ID/g
Drug uptake (Lung [33]): 1.88 % ID/g
Drug uptake (Kidney [34]): 2.53 % ID/g
Drug uptake (Stomach [35]): 4.14 % ID/g
Drug uptake (Muscle tissue [36]): 0.82 % ID/g
Drug uptake (Brain [37]): 0.3 % ID/g
Drug uptake (Mus musculus [38]): 2.98 % ID/g
Drug uptake (Blood [39]): 1.19 % ID/g
Ratio (Nucleic Acid [40]): 3.63
Ratio (Nucleic Acid [41]): 2.5
Ratio (Nucleic Acid [42]): 9.93
Drug uptake (Heart [43]): 1.03 % ID/g
Drug uptake (Liver [44]): 3.4 % ID/g
Drug uptake (Spleen [45]): 1.04 % ID/g
Drug uptake (Lung [46]): 1.62 % ID/g
Drug uptake (Kidney [47]): 1.27 % ID/g
Drug uptake (Stomach [48]): 1.07 % ID/g
Drug uptake (Muscle tissue [49]): 1.36 % ID/g
Drug uptake (Brain [50]): 1.5 % ID/g
Drug uptake (Mus musculus [51]): 1.81 % ID/g
Drug uptake (Blood [52]): 0.77 % ID/g
Ratio (Nucleic Acid [53]): 1.33
Ratio (Nucleic Acid [54]): 2.35
Ratio (Nucleic Acid [55]): 1.21
CL (Blood [56]): 90%
